Biological target: T1, WT-TTR (Homo sapiens, UniProt P02766)
T1 construct: made in house
Experiment: Stagnant acid-mediated TTR aggregation (fibril formation) assay, turbidity at 340 nm
Format: biochemical
Conditions: pH 4.4, compound 100 μM, WT-TTR 7.2 μM, pH 4.4, 37° C.; for remaining activity at 100 µM: 72 h, read-out: % FF; for inhibition at 100 µM: read-out: % Inhibition
Experimental: Stagnant Acid-Mediated TTR Aggregation Assay.
After 1 h, the samples were diluted with 0.5 ml of 200 mM sodium acetate buffer containing 100 mM KCl and 1 mM EDTA. Samples after mild vortexing were incubated at 37° C. for the desired amount of time without stirring to evaluate the efficacy of the inhibitors. The extent of aggregation was probed by turbidity measurements at 340 nm using Tecan GENios microplate reader. […] The extent of TTR fibril formation in the absence of inhibitor was defined to be 100%. […] All experiments were done in triplicate. […] The IC50 was determined by plotting mean of % inhibition vs log and fitted to sigmoid equation:
The experiments were conducted at 25° C. After 1 h, the samples were diluted with 0.5 mL of 200 mM sodium acetate buffer pH 4.4 containing 100 mM KCl and 1 mM EDTA, vortexed, and incubated at 37° C. for 72 h. […] The stoichiometry of the binding of the inhibitors was determined by HPLC as described by Green et al., N. S. Palaninathan, S, L, Sacchettini, J. e. […] Dissociation constant of binding of these compounds to TTR was determined by fluorescence titration, and data were fitted into the Adair equation for two bind mg.

| Compound | remaining activity at 100 µM [%] | inhibition at 100 µM [%] |
| --- | --- | --- |
| O=C1NC(=S)S/C1=C\c1ccc(-c2cc(Cl)ccc2Cl)o1 [Compound 3062-0073] | 286 | 0 |
| Cc1ccc(/C=c2/sc3nc4ccccc4n3c2=O)cc1 [Compound 3062-0586] | 125 | 0 |
| O=c1/c(=C\c2ccccc2Cl)sc2nc3ccccc3n12 [Compound 3062-0592] | 71 | 29.1 |
| O=C(Nc1nnc[nH]1)c1c(Cl)ccc(Cl)c1Cl [Compound 3232-0353] | 11.5 | 88.5 |
| O=C1/C(=C\c2cccc(O)c2)SC(=S)N1c1ccc(F)cc1 [Compound 3232-1704] | 309 | 0 |
| Cc1nc2c(ccc3ccccc32)c(O)c1CN1CCCC1 [Compound 3453-1335] | 66.9 | 33.1 |
| Cc1nc2c(ccc3ccccc32)c(O)c1CN1CCOCC1 [Compound 3453-1337] | 69.6 | 30.4 |
| CCCCN1CCc2nc3c(ccc4ccccc43)c(O)c2C1 [Compound 3453-1352] | 75.7 | 24.3 |
| Cc1nc2c(ccc3ccccc32)c(O)c1CN(C)Cc1ccccc1 [Compound 3453-1353] | 105 | 0 |
| Cn1c(=O)c2c(nc(Oc3ccc(-n4cnnn4)cc3)n2C)n(C)c1=O [Compound 3615-0252] | 155 | 0 |
| Nc1cc(O)nc(SCC(=O)N2CCOCC2)n1 [Compound 3996-0165] | 112 | 0 |
| CCCCN(CC)Cc1c(C)nc2ccc(Cl)cc2c1O [Compound 4358-1230] | 79.7 | 20.3 |
| Cc1nc2ccc(Cl)cc2c(O)c1CN1CCCC1 [Compound 4358-1240] | 81.8 | 18.2 |
| Cc1nnc2c(Oc3ccc(Cl)cc3)nc3ccccc3n12 [Compound 5001-0261] | 114 | 0 |
| Cc1ccc2nc(Nc3nc(O)c4ccccc4n3)nc(C)c2c1 [Compound 5594-0187] | 68.9 | 31.1 |
| Cc1ccsc1/C=c1\sc2nc(-c3cccs3)nn2c1=O [Compound 5629-0544] | 77.8 | 22.3 |
| Oc1ccc(Nc2nc(-c3ccc(Cl)cc3)nc3ccccc23)cc1 [Compound 5847-1646] | 96 | 4.06 |
| O=C1CSC(c2ccc(Cl)cc2Cl)N1c1ccc(Cl)cc1 (stereo not shown) [Compound 8004-9890] | 20.3 | 79.7 |
| O=C(c1cnc(Nc2ccc(F)cc2)c2ccccc12)n1ccnc1 [Compound C066-1627] | – | 0 |
| O=C(O)CCc1nc(-c2cccs2)no1 [Compound C066-2523] | 32.1 | 67.9 |
| O=C(Nc1c2c(nn1-c1cccc(Cl)c1)C[S+]([O-])C2)c1ccccc1F (stereo not shown) [Compound C077-0215] | 89.5 | 10.4 |

| Compound | remaining activity at 100 µM [%] | inhibition at 100 µM [%] |
| --- | --- | --- |
| O=C(Nc1c2c(nn1-c1ccc(F)cc1)C[S+]([O-])C2)c1ccccc1F (stereo not shown) [Compound C077-0216] | 104 | 0 |
| COc1ccc(NC(=S)N(CCCN2CCOCC2)Cc2cccs2)cc1 [Compound C087-0783] | 102 | 0 |
| CCN(CC)CCCN(Cc1ccco1)C(=S)Nc1ccc(OC)cc1 [Compound C087-0785] | 107 | 0 |
| COc1ccc(NC(=S)N(CCCN2CCOCC2)Cc2cccnc2)cc1 [Compound C087-0811] | 98.6 | 1.4 |
| COc1ccccc1NC(=S)N(CCCN1CCCCCC1)Cc1cccs1 [Compound C087-0823] | 104 | 0 |
| CCc1ccccc1NC(=S)N(CCN(C)C)Cc1cccs1 [Compound C087-0905] | 108 | 0 |
| Fc1ccccc1NC(=S)N(CCCN1CCOCC1)Cc1cccnc1 [Compound C087-1168] | 99.3 | 0.7 |
| FC(F)(F)c1cccc(NC(=S)N(CCCN2CCCCC2)Cc2cccs2)c1 [Compound C087-1176] | 86.7 | 13.3 |
| O=C(c1cc(-c2ccc(Cl)s2)nc2ccccc12)N1CCOCC1 [Compound C136-0215] | 156 | 0 |
| CSC1=NSC2=NC(=O)/C(=C\c3ccc(Cl)cc3)C(=N)N12 [Compound C146-0181] | 67.1 | 32.9 |
| CSC1=NSC2=NC(=O)/C(=C\c3ccc(O)cc3)C(=N)N12 [Compound C146-0184] | 72.7 | 27.3 |
| CSC1=NSC2=NC(=O)/C(=C\c3ccc[nH]3)C(=N)N12 [Compound C146-0661] | 202 | 0 |
| O=C1CCCC2=C1C(c1cccc(O)c1)NC(=S)N2 (stereo not shown) [Compound C157-0040] | 106 | 0 |
| Cc1nc2c(C(=O)NCCC(C)C)cnn2c(O)c1Cc1ccccc1F [Compound C218-0295] | -86.7 | 91.7 |
| Cc1nc2c(C(=O)NCc3ccc(F)cc3)cnn2c(O)c1Cc1ccccc1F [Compound C218-0299] | 46.9 | 53.1 |
| Cc1cc(C(=O)Nc2cc(Cl)ccc2O)no1 [Compound C226-2564] | 96.8 | 3.18 |
| Cc1cc(C(=O)Nc2cccnc2Cl)no1 [Compound C226-2576] | 130 | 0 |
| Oc1ccc(-c2nc3ncccn3c2Nc2ccc(Cl)cc2)cc1 [Compound C239-0727] | 135 | 0 |
| Cc1ccc2nc(-c3ccc(Cl)s3)c(Nc3ccc(Cl)cc3)n2c1 [Compound C239-0730] | 113 | 0 |
| O=c1c2sccc2n(Cc2ccc(F)cc2Cl)c(=O)n1-c1cc(F)ccc1F [Compound C241-0192] | 117 | 0 |
| NN1C(=O)/C(=C\c2ccc(Cl)cc2)NC1=S [Compound C249-0056] | 131 | 0 |

| Compound | remaining activity at 100 µM [%] | inhibition at 100 µM [%] |
| --- | --- | --- |
| O=C(CSc1nccn1-c1cccc(Cl)c1)Nc1cccc2ccccc12 [Compound C262-0464] | 122 | 0 |
| Clc1ccc2nc(-c3ccc(Cl)s3)c(NC3CCCCC3)n2c1 [Compound C273-0206] | 138 | 0 |
| Cc1ccn2c(Nc3ccc(F)cc3)c(-c3ccccn3)nc2c1 [Compound C273-0218] | 162 | 0 |
| Cc1ccccc1Nc1c(-c2ccc(O)cc2)nc2ccc(Cl)cn12 [Compound C273-0223] | 130 | 0 |
| Cc1ccccc1Nc1c(-c2ccc(Cl)s2)nc2ccc(Cl)cn12 [Compound C273-0244] | 306 | 0 |
| NC(=O)CSc1ncc(-c2ccc(Cl)cc2)[nH]1 [Compound C290-0041] | 39.2 | 60.8 |
| O=C1OC(c2ccc(Cl)cc2Cl)=N/C1=C\c1cccs1 [Compound K075-5819] | 136 | 0 |
| O=C(O)C1CSC(c2ccc(Cl)cc2)N1 (stereo not shown) [Compound K085-0001] | 142 | 0 |
| O=C(O)C1CSC(c2ccc([N+](=O)[O-])cc2)N1 (stereo not shown) [Compound K085-0004] | 119 | 0 |
| O=C(O)C1CSC(c2c(F)cccc2Cl)N1 (stereo not shown) [Compound K085-0006] | 20.3 | 79.7 |
| COc1ccc(C2NC(C(=O)O)CS2)cc1OC (stereo not shown) [Compound K085-0007] | 129 | 0 |
| O=C(O)C1CSC(c2ccc(O)cc2)N1 (stereo not shown) [Compound K085-0008] | 120 | 0 |
| O=C(O)C1CSC(c2ccc(Cl)c(Cl)c2)N1 (stereo not shown) [Compound K085-0014] | 102 | 0 |
| O=C(O)C1CSC(c2ccc(Cl)cc2Cl)N1 (stereo not shown) [Compound K085-0018] | 22.3 | 77.7 |
| O=C(O)C1CSC(c2cccnc2)N1 (stereo not shown) [Compound K085-0021] | 144 | 0 |
| CCCCC1NC(C(=O)O)CS1 (stereo not shown) [Compound K085-0025] | 128 | 0 |
| Cc1ccc(C2NC(C(=O)O)CS2)cc1 (stereo not shown) [Compound K085-0026] | 14.3 | 85.7 |
| COc1cc(C2NC(C(=O)O)CS2)ccc1O (stereo not shown) [Compound K085-0027] | 116 | 0 |
| O=C1OC(c2ccc(Cl)cc2Cl)=N/C1=C/c1ccc(Cl)c(Cl)c1 [Compound K088-1297] | 138 | 0 |

Source: US20100190832A1, “Mechanism-based inhibitors of transthyretin amyloidosis: studies with biphenyl ethers and structural templates” (NATIONAL INSTITUTE OF IMMUNOLOGY., priority 2008, published 2010)
